Experiment [1] has as its target T1, GST-human KRas166 (G12V) GPPNHP (Homo sapiens, UniProt P01116, G12V).
T1 construct: made in house; host or cells: E. coli C41(DE3)
In words: KRas small-molecule screening by SPR (Biacore T200). Type of experiment: binding. The conditions noted are these: compound 100 uM, 5% DMSO buffer; immobilised GST-KRas166 (G12V) GPPNHP. Put shortly: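 Biacore T200 screen: compounds at 100 uM final in 5% DMSO buffer (100 mM NaCl, 5 mM MgCl2) over GPPNHP-bound GST-KRas166 G12V captured by anti-GST antibody (10,000–15,000 RU) versus GST-only channel. Expected 1:1 Rmax 63 RU; DMSO solvent correction applied.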
For orientation: In SPR one partner is held on a chip, and binding of the other changes the refractive index at the surface.

Experiment [2] has as its system H358 cells (ATCC CRL-5807). In words: Cell viability assay 1 (CellTiter-Glo), H358 cells. Conditions: Homo sapiens, NCI-H358, 48 h, first value of the cell, read-out: Cell Viability H358 (concentration that decreases cell viability by 50%). Type of experiment: cell-based. A digest of the protocol: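 H358 cells were grown in RPMI-1640 with 10% FCS and 2 mM L-glutamine, plated at 5000 cells/well and allowed to adhere overnight. Compound was added in 0.5% DMSO final for 48 h at 37° C. Viability was read by CellTiter-Glo luminescence, with the 50% viability-reducing concentration derived from dose-response curves.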
(ATP-based viability assays read luminescence as a measure of living cells.)

The subject of experiment [3] is DLD1 cells (ATCC CCL-221). The experiment in a line: Cell viability assay 1 (CellTiter-Glo), DLD1 cells. Type of experiment: cell-based. The conditions noted are these: Homo sapiens, DLD-1 cells, 48 h, second value of the cell, read-out: Cell Viability DLD-1 (concentration that decreases cell viability by 50%). A digest of the protocol: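 DLD1 cells grown in RPMI-1640 with 10% FCS, 2 mM L-glutamine, 37 °C, 5% CO2, plated overnight then exposed to compound (0.5% DMSO) for 48 h. Viability by CellTiter-Glo luminescence; value is concentration reducing viability by 50% from dose-response curves.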

Each structure is given as a SMILES string.

For the molecule `COc1nc(-c2cccc3c2OCCO3)ccc1Nc1cccc(C(=O)NCC2CCN(Cc3ccccc3)CC2)c1` [Example 181, N-(1-Benzyl-piperidin-4-ylmethyl)-3-[6-(2,3-dihydro-benzo[1,4]dioxin-5-yl)-2-methoxy-pyridin-3-ylamino]-benzamide], the “SPR Response Units” value in experiment [1] is reported as 149 Response Units. The IC50 in experiment [2] was 4.3 µM; in experiment [3], 1.8 µM.

Regarding `COc1nc(-c2cccc3c2OCCO3)ccc1Nc1cccc(C(=O)NCC2CCNC(=O)C2)c1` (stereo not drawn) [Example 182, 3-[6-(2,3-Dihydro-benzo[1,4]dioxin-5-yl)-2-methoxy-pyridin-3-ylamino]-N-(2-oxo-piperidin-4-ylmethyl)-benzamide], in experiment [1], the “SPR Response Units” value was determined as 198 Response Units. Moreover, the IC50 is 27 µM in experiment [2] and 11.3 µM in experiment [3].

On to `NCc1ccc(C(=O)N2CCN(c3cccc4c3OCCO4)CC2)cc1` [Example 184, (4-Aminomethyl-phenyl)-[4-(2,3-dihydro-benzo[1,4]dioxin-5-yl)-piperazin-1-yl]-methanone], for which, in experiment [1], the “SPR Response Units” value came out at 10 Response Units. For the same molecule, the IC50 in experiment [2] amounted to 3.6 µM; in experiment [3], 1.2 µM.

For the molecule `COc1nc(-c2cccc3c2OCCO3)ccc1Nc1ccc(C(=O)NCC2CCN(Cc3ccccc3)CC2)cc1` [Example 185, N-(1-Benzyl-piperidin-4-ylmethyl)-4-[6-(2,3-dihydro-benzo[1,4]dioxin-5-yl)-2-methoxy-pyridin-3-ylamino]-benzamide], the “SPR Response Units” value in experiment [1] was 122 Response Units. In addition, the results for the IC50 in experiment [2] and in experiment [3] were 2.4 µM and 1.2 µM, respectively.

As to `COc1nc(-c2cccc3c2OCCO3)ccc1Nc1ccc(CNCC2CCN(C)CC2)cc1` [Example 186, [6-(2,3-Dihydro-benzo[1,4]dioxin-5-yl)-2-methoxy-pyridin-3-yl]-(4-{[(1-methyl-piperidin-4-ylmethyl)-amino]-methyl}-phenyl)-amine], the “SPR Response Units” value in experiment [1] was found to be 636 Response Units. The IC50 in experiment [2] was found to be 2.4 µM; in experiment [3], 0.3 µM.

For the molecule `COc1nc(-c2cccc3c2OCCO3)ccc1Nc1ccc(CNCC2CCN(Cc3ccccc3)CC2)cc1` [Example 187, (4-{[(1-Benzyl-piperidin-4-ylmethyl)-amino]-methyl}-phenyl)-[6-(2,3-dihydro-benzo[1,4]dioxin-5-yl)-2-methoxy-pyridin-3-yl]-amine], in experiment [1], the “SPR Response Units” value turned out to be 916 Response Units. Moreover, the IC50 in experiment [2] came to 25.9 µM; in experiment [3], 2.2 µM.

Regarding `COc1nc(-c2cccc3c2OCCO3)ccc1Nc1ccc(CNCc2cccc(F)n2)cc1` [Example 188, [6-(2,3-Dihydro-benzo[1,4]dioxin-5-yl)-2-methoxy-pyridin-3-yl]-(4-{[(6-fluoro-pyridin-2-ylmethyl)-amino]-methyl}-phenyl)-amine], the “SPR Response Units” value in experiment [1] is 103 Response Units. Further, the IC50 in experiment [2] is 27.4 µM; in experiment [3], 49.5 µM.

As for `COc1nc(-c2cccc3c2OCCO3)ccc1Nc1cccc(CNCC2CCN(C)CC2)c1` [Example 189, [6-(2,3-Dihydro-benzo[1,4]dioxin-5-yl)-2-methoxy-pyridin-3-yl]-(3-{[(1-methyl-piperidin-4-ylmethyl)-amino]-methyl}-phenyl)-amine], the “SPR Response Units” value in experiment [1] is recorded as 552 Response Units. The IC50 in experiment [2] is 44.9 µM; in experiment [3] it was 1.4 µM.

Take `COc1nc(-c2cccc3c2OCCO3)ccc1Nc1cccc(CNCC2CCN(Cc3ccccc3)CC2)c1` [Example 190, (3-{[(1-Benzyl-piperidin-4-ylmethyl)-amino]-methyl}-phenyl)-[6-(2,3-dihydro-benzo[1,4]dioxin-5-yl)-2-methoxy-pyridin-3-yl]-amine]: the “SPR Response Units” value in experiment [1] was 665 Response Units. In addition, the IC50 turned out to be 8.6 µM in experiment [2] and 1.6 µM in experiment [3].

Regarding `COc1nc(-c2cccc3c2OCCO3)ccc1Nc1cccc(CNCC2CCN(C(C)=O)CC2)c1` [Example 191, 1-[4-({3-[6-(2,3-Dihydro-benzo[1,4]dioxin-5-yl)-2-methoxy-pyridin-3-ylamino]-benzylamino}-methyl)-piperidin-1-yl]-ethanone], the “SPR Response Units” value in experiment [1] was 327 Response Units. For the same molecule, the IC50 in experiment [2] is 91.8 µM; in experiment [3] it was 7.9 µM.

With `COc1nc(-c2cccc3c2OCCO3)ccc1Nc1cccc(CNCC2CCC(=O)N2)c1` (stereo not drawn) [Example 192, 5-({3-[6-(2,3-Dihydro-benzo[1,4]dioxin-5-yl)-2-methoxy-pyridin-3-ylamino]-benzylamino}-methyl)-pyrrolidin-2-one], the “SPR Response Units” value in experiment [1] is reported as 321 Response Units. For the same molecule, the IC50 was greater than 150 µM in experiment [2] and 11.4 µM in experiment [3].

Take `COc1nc(-c2cccc3c2OCCO3)ccc1Nc1cccc(CNCc2cc[nH]c(=O)c2)c1` [Example 193, 4-({3-[6-(2,3-Dihydro-benzo[1,4]dioxin-5-yl)-2-methoxy-pyridin-3-ylamino]-benzylamino}-methyl)-1H-pyridin-2-one]: the “SPR Response Units” value in experiment [1] is 388 Response Units. Further, the IC50 came to 52.5 µM in experiment [2] and 14.8 µM in experiment [3].

Turning to `COc1nc(-c2cccc3c2OCCO3)ccc1Nc1cccc(CNCC2CCNC(=O)C2)c1` (stereo not drawn) [Example 194, 4-({3-[6-(2,3-Dihydro-benzo[1,4]dioxin-5-yl)-2-methoxy-pyridin-3-ylamino]-benzylamino}-methyl)-piperidin-2-one], in experiment [1], the “SPR Response Units” value is 359 Response Units. The IC50 in experiment [2] was greater than 150 µM; in experiment [3], 11.2 µM.

As for `COc1nc(-c2cccc3c2OCCO3)ccc1Nc1cccc(CNCC2CCC(=O)NC2)c1` (stereo not drawn) [Example 195, 5-({3-[6-(2,3-Dihydro-benzo[1,4]dioxin-5-yl)-2-methoxy-pyridin-3-ylamino]-benzylamino}-methyl)-piperidin-2-one], in experiment [1], the “SPR Response Units” value is 176 Response Units. The IC50 was 13 µM in experiment [2] and 3.8 µM in experiment [3].

On to `COc1nc(-c2cccc3c2OCCO3)ccc1Nc1ccc(C(=O)NCC2CCNC(=O)C2)cc1` (stereo not drawn) [Example 196, 4-[6-(2,3-Dihydro-benzo[1,4]dioxin-5-yl)-2-methoxy-pyridin-3-ylamino]-N-(2-oxo-piperidin-4-ylmethyl)-benzamide], for which the “SPR Response Units” value in experiment [1] is reported as 194 Response Units. Besides, the IC50 in experiment [2] stood at 30.6 µM; in experiment [3], 7.2 µM.

Take `COc1nc(-c2cccc3c2OCCO3)ccc1Nc1ccc(CC(=O)NCC2CCN(C)CC2)cc1` [Example 197, 2-{4-[6-(2,3-Dihydro-benzo[1,4]dioxin-5-yl)-2-methoxy-pyridin-3-ylamino]-phenyl}-N-(1-methyl-piperidin-4-ylmethyl)-acetamide]: the “SPR Response Units” value in experiment [1] is reported as 453 Response Units. The IC50 is greater than 150 µM in experiment [2] and 15.9 µM in experiment [3].

On to `COc1nc(-c2cccc3c2OCCO3)ccc1Nc1ccc(CC(=O)N2CCN(C)CC2)cc1` [Example 198, 2-{4-[6-(2,3-Dihydro-benzo[1,4]dioxin-5-yl)-2-methoxy-pyridin-3-ylamino]-phenyl}-1-(4-methyl-piperazin-1-yl)-ethanone], for which the “SPR Response Units” value in experiment [1] was found to be 330 Response Units. The IC50 in experiment [2] came to 1.57 µM; in experiment [3] it was 21.8 µM.

The values above are taken from US12024506B2, “Compounds” (Oxford University Innovation Limited, priority 2018, dated 2024).
